From patent publication US12600709B2, “Nonpeptide somatostatin type 5 receptor agonists and uses thereof” (Crinetics Pharmaceuticals, Inc., priority 2019, dated 2026) come the findings set out here.

Like-named read-outs stand apart in the source and are kept apart here. Some results are limits rather than exact numbers.

Assay [1] has as its target T1, human somatostatin receptor subtype 5 (Homo sapiens, UniProt P35346).
T1 construct: expressed in transfected cells
Kind of assay: cAMP assay for SST5R (inhibition of cAMP in CHO-K1 cells). The assay is classed as cell-based. As to conditions: for EC50: inhibition of cAMP via human SST5 receptor, read-out: SST5 potency; for Fold selectivity for SST5 vs SST2: class symbols, SST5 receptor over SST2 receptor. An outline of the steps:
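CHO-K1 cells stably expressing human SSTR5 were treated 20 min at 37 °C with compounds plus 1.6 μM NKH477 in HBSS, 0.5 mM HEPES pH 7.4, 0.1% BSA, 0.2 mM IBMX. Lysate cAMP measured by HTRF against a standard curve; EC50 from cAMP-versus-concentration plots.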
In general terms: Changes in cAMP serve as a functional read-out for many G protein-coupled receptors.

Assay [2] deals with T2, human somatostatin receptor subtype 2 (Homo sapiens, UniProt P30874).
T2 construct: expressed in transfected cells
Kind of assay: cAMP assay for SST2R (inhibition of cAMP in CHO-K1 cells). The format is cell-based. The conditions noted are these: Table B; inhibition of cAMP via human SST2 receptor; read-out: SST2 potency. An outline of the steps:
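Agonism read as decrease in NKH477 (1.6 μM)-stimulated cAMP: compounds applied 20 min, 37° C, with 0.2 mM IBMX, to CHO-K1 stably expressing human SSTR2. cAMP quantified in lysates by time-resolved fluorescence (HTRF kit, 1-24 h RT), standard-curve regression, then EC50.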

T2 sequence (P30874 whole entry): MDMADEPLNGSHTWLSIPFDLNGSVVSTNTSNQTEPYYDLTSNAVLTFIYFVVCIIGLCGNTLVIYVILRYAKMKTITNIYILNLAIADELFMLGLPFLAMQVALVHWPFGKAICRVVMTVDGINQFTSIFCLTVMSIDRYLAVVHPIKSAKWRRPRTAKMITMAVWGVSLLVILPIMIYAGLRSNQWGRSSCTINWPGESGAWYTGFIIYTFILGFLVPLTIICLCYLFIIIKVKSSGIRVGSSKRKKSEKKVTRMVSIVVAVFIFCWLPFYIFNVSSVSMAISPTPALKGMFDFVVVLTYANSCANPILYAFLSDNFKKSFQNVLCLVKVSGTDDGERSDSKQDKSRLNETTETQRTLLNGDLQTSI
T1 sequence (P35346 whole entry): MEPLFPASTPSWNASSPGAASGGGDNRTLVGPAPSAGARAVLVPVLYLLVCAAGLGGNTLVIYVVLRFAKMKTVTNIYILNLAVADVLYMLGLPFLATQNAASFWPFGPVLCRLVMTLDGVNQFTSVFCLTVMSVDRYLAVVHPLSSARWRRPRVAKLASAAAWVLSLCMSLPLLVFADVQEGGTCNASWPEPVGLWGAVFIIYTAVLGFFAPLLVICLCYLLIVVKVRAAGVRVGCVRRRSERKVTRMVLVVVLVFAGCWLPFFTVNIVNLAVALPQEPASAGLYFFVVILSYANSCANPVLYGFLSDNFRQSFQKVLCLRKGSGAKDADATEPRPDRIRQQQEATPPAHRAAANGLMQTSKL

`CC(C)CNC(=O)c1cnc(C#N)c(-c2ccnc(C(F)(F)F)c2)c1N1CC[C@](C)(N)C1` [1-250, 4-[(3S)-3-amino-3-methylpyrrolidin-1-yl]-2-cyano-N-(2-methylpropyl)-2′-(trifluoromethyl)-[3,4′-bipyridine]-5-carboxamide]: the EC50 in assay [1] (Table A) was less than 10 nM; in assay [1] (Table B) it was less than 10 nM; in assay [2], greater than 1000 nM. Also, the “Fold selectivity for SST5 vs SST2” value in assay [1] (Table B) is “+++ (+++=>500)”.
Turning to `CCCCNC(=O)c1cnc(C#N)c(-c2ccnc(C(F)(F)F)c2)c1N1CC[C@](C)(N)C1` [1-251, 4-[(3S)-3-amino-3-methylpyrrolidin-1-yl]-N-butyl-2-cyano-2′-(trifluoromethyl)-[3,4′-bipyridine]-5-carboxamide], the EC50 in assay [1] (Table A) was less than 10 nM; in assay [1] (Table B), less than 10 nM; in assay [2] it was greater than 1000 nM. Moreover, the “Fold selectivity for SST5 vs SST2” value in assay [1] (Table B) is reported as “+++ (+++=>500)”.
On to `COc1cc(-c2c(C#N)ncc(C(=O)NC3CCCCC3)c2N2CC[C@](C)(N)C2)ccn1` [1-252, 4-[(3S)-3-amino-3-methylpyrrolidin-1-yl]-2-cyano-N-cyclohexyl-2′-methoxy-[3,4′-bipyridine]-5-carboxamide], for which the EC50 in assay [1] (Table A) is less than 10 nM; in assay [1] (Table B), less than 10 nM; in assay [2], 100 to 1000 nM. In assay [1] (Table B), the “Fold selectivity for SST5 vs SST2” value is recorded as “+++ (+++=>500)”.
Turning to `CCC(CC)NC(=O)c1cnc(C#N)c(-c2ccnc(OC)c2)c1N1CC[C@](C)(N)C1` [1-253, 4-[(3S)-3-amino-3-methylpyrrolidin-1-yl]-2-cyano-2′-methoxy-N-(pentan-3-yl)-[3,4′-bipyridine]-5-carboxamide], the figures for the EC50 in assay [1] (Table A), in assay [1] (Table B) and in assay [2] were less than 10 nM, less than 10 nM and 100 to 1000 nM, respectively. Also, in assay [1] (Table B), the “Fold selectivity for SST5 vs SST2” value is “+++ (+++=>500)”.
Regarding `COc1cc(-c2c(C#N)ncc(C(=O)NC3CCCC3)c2N2CC[C@](C)(N)C2)ccn1` [1-254, 4-[(3S)-3-amino-3-methylpyrrolidin-1-yl]-2-cyano-N-cyclopentyl-2′-methoxy-[3,4′-bipyridine]-5-carboxamide], the EC50 is less than 10 nM in assay [1] (Table A), less than 10 nM in assay [1] (Table B) and greater than 1000 nM in assay [2]. Moreover, the “Fold selectivity for SST5 vs SST2” value in assay [1] (Table B) is listed as “+++ (+++=>500)”.
Consider `COc1cc(-c2c(C)ncc(C(=O)NC3CCCCC3)c2N2CC[C@](C)(N)C2)ccn1` [1-255, 4-[(3S)-3-amino-3-methylpyrrolidin-1-yl]-N-cyclohexyl-2′-methoxy-2-methyl-[3,4′-bipyridine]-5-carboxamide], for which the EC50 is less than 10 nM in assay [1] (Table A), less than 10 nM in assay [1] (Table B) and greater than 1000 nM in assay [2]. Further, in assay [1] (Table B), the “Fold selectivity for SST5 vs SST2” value is “+++ (+++=>500)”.
For the molecule `COc1cc(-c2c(C)ncc(C(=O)NC3CCCC3)c2N2CC[C@](C)(N)C2)ccn1` [1-256, 4-[(3S)-3-amino-3-methylpyrrolidin-1-yl]-N-cyclopentyl-2′-methoxy-2-methyl-[3,4′-bipyridine]-5-carboxamide], the figures for the EC50 in assay [1] (Table A), in assay [1] (Table B) and in assay [2] were less than 10 nM, less than 10 nM and greater than 1000 nM, respectively. Besides, the “Fold selectivity for SST5 vs SST2” value in assay [1] (Table B) is given as “+++ (+++=>500)”.
For `Cc1ncc(C(=O)NC2CCCCC2)c(N2CC[C@](C)(N)C2)c1-c1ccnc(C(F)(F)F)c1` [1-257, 4-[(3S)-3-amino-3-methylpyrrolidin-1-yl]-N-cyclohexyl-2-methyl-2′-(trifluoromethyl)-[3,4′-bipyridine]-5-carboxamide], the EC50 in assay [1] (Table A) is less than 10 nM; in assay [1] (Table B), less than 10 nM; in assay [2], greater than 1000 nM. Also, the “Fold selectivity for SST5 vs SST2” value in assay [1] (Table B) is reported as “+++ (+++=>500)”.
On to `Cc1ncc(C(=O)NC2CCCC2)c(N2CC[C@](C)(N)C2)c1-c1ccnc(C(F)(F)F)c1` [1-258, 4-[(3S)-3-amino-3-methylpyrrolidin-1-yl]-N-cyclopentyl-2-methyl-2′-(trifluoromethyl)-[3,4′-bipyridine]-5-carboxamide], for which the EC50 was less than 10 nM in assay [1] (Table A), less than 10 nM in assay [1] (Table B) and greater than 1000 nM in assay [2]. Moreover, the “Fold selectivity for SST5 vs SST2” value in assay [1] (Table B) was “+++ (+++=>500)”.
